In a melting point compilation (Tetko et al.):

Row | Structure (SMILES) | melting point [°C]
1 | Nc1cnn(-c2cnc3ccccc3n2)c1 | 169 to 171
2 | CC(CC(=O)O)C1CCNCC1 (stereo not given) | 255 to 257
3 | CC(Cl)C1CC(c2ccccc2)=NO1 (stereo not given) | 59 to 61
4 | Nc1cccc(CS(=O)(=O)c2ccc(F)cc2F)c1 | 97 to 99
5 | Cc1nonc1N | 56 to 58
6 | CCc1ccc(C=CS(=O)(=O)Cl)cc1 | 66 to 68
7 | CC(N)c1ccc(NC(=O)Nc2ccccc2)cc1 (stereo not given) | 165 to 167
8 | O=Cc1ccc(-c2ccc(C(F)(F)F)cc2)o1 | 106 to 108
9 | CS(=O)(=O)c1cc(C#N)ccn1 | 143 to 145
10 | OCC#Cc1ccc(Oc2ccccc2)cc1 | 42 to 44
11 | Cc1ccc2cc(CCl)c(Cl)nc2c1 | 132 to 134
12 | NNC(=O)CC(F)(F)F | 90 to 92
13 | NS(=O)(=O)c1cccc(NC(=O)CCl)c1 | 162 to 171
14 | O=C(CCl)N1c2ccccc2CCc2ccccc21 | 96 to 98
15 | Cn1cc2c(cc1=O)CCN2 | 204 to 206
16 | O=c1c(Cl)c(Cl)cnn1-c1cccc(C(F)(F)F)c1 | 92 to 94
17 | O=[N+]([O-])c1cc(F)c(S(=O)(=O)Cl)c(F)c1 | 73 to 75
18 | O=c1[nH]c(-c2ccccc2Cl)cs1 | 182 to 184
19 | CC(C)(C)OC(=O)N1CCN2C(=O)C(=O)NCC2C1 (stereo not given) | 222 to 224
20 | CCCCC(NC(=O)NCC)C(=O)O (stereo not given) | 96 to 98
21 | O=C(O)c1cc(-c2ccccc2)nc2c1cnn2Cc1ccncc1 | 279 to 281
22 | O=[N+]([O-])c1cccc(Sc2ccccc2)c1 | 38 to 40
23 | NNC(=O)CSc1nnc(-c2ccccc2)n1-c1ccccc1 | 242 to 244

Row | Structure (SMILES) | melting point [°C]
24 | CCOC(=O)C1CN(C(=O)OC(C)(C)C)CCN1 (stereo not given) | 55 to 57
25 | CNc1ccnc(C)n1 | 79 to 81
26 | Cc1ccc(Br)c(S(=O)(=O)Cl)c1 | 57 to 59
27 | O=C(O)COc1ccc2oc3ccccc3c2c1 | 132 to 134
28 | Cc1csc(=O)n1CCCC(=O)O | 97 to 99
29 | Fc1c(Cl)ccc2c(Cl)ccnc12 | 129 to 131
30 | CN(C)c1ccc(NC(=S)NN)cc1 | 167 to 169
31 | CCCOc1ccc(NS(C)(=O)=O)cc1 | 118 to 120
32 | CC(C)(C)OC(=O)NC1CCC2CNCC21 (stereo not given) | 109 to 111
33 | NC(=S)CCCc1ccccc1 | 59 to 61
34 | O=C(O)C1C2C=CC(C2)C1C(=O)N1CCN(CCO)CC1 (stereo not given) | 192 to 194
35 | Cc1cc(C=O)c(C)n1CC#N | 122 to 124
36 | C=CCN(c1ccc(OC)cc1)S(=O)(=O)c1ccc(Cl)c(C(=O)O)c1 | 109 to 111
37 | O=[N+]([O-])c1ccc(F)c(-n2cnnn2)c1 | 101 to 103
38 | CCOC(=O)CNc1ccccc1-c1ccccc1 | 53 to 55
39 | CCN1N=C(c2ccccc2)CC1=O | 140 to 142
40 | Nc1cc(Br)cnc1Br | 137 to 139
41 | COc1ccc(N)cc1OCc1cn2ccccc2n1 | 190 to 192
42 | NC(=O)Cn1cc(C(=O)O)nn1 | 198 to 200
43 | Cc1csc(-c2ccc(N)cc2)n1 | 111 to 113
44 | O=C(CCl)Nc1ccc(O)cc1 | 145 to 147
45 | N#Cc1cc(-c2ccccc2)sc1N | 190 to 192
46 | Cc1cc(C(=O)O)c(C)n1C(C)C | 178 to 180

Row | Structure (SMILES) | melting point [°C]
47 | Cc1nc(NC(=O)CCl)sc1C | 144 to 146
48 | Cc1ccccc1-n1nnnc1S | 65 to 67
49 | Cc1cc(C)c(-c2csc(N)n2)cc1C | 252 to 254
50 | CCN(C(=O)CCl)c1nc2ccccc2s1 | 233 to 235
51 | Cc1cccc([N+](=O)[O-])c1C(N)=O | 158 to 160
52 | CC(C)c1nc(C=O)c2ccccn12 | 95 to 97
53 | COc1ccc(-c2cc(C(=O)O)n(-c3ccccc3)n2)cc1 | 190 to 192
54 | Cc1c(C)c(C)c(S)c(C)c1C | 62 to 64
55 | Cc1c(C(=O)O)cc(Br)cc1S(=O)(=O)Cl | 139 to 141
56 | Cn1cnc(-c2ccccc2)c1N | 159 to 161
57 | Cc1sc(N)nc1-c1ccc(OC(F)F)cc1 | 105 to 107
58 | NS(=O)(=O)N1CCC(OC(=O)C(F)(F)F)CC1 | 126 to 128
59 | Cc1c(Br)cc(S(=O)(=O)Cl)cc1C(=O)O | 167 to 169
60 | CC(C)Nc1nc(COc2ccccc2)no1 | 86 to 88
61 | O=C1OC(C=Cc2ccccc2)=NC1=Cc1cccnc1 | 165 to 167
62 | OCc1cnn(Cc2ccccc2)c1 | 55 to 57
63 | CS(=O)(=O)c1c(N)cccc1Cl | 97 to 99
64 | CC(=O)NC1(c2noc(CCC(=O)O)n2)CCCCCC1 | 149 to 151
65 | N#Cc1ccc(-c2nnco2)cc1 | 142 to 144
66 | N#Cc1ccc(OCCO)cc1 | 85 to 87
67 | COc1ccc(-c2cc(C(=O)O)c3ccccc3n2)cc1OC | 234 to 236

Results, then the compound that gave them:

Row | melting point [°C] | Structure (SMILES)
68 | 226 to 228 | O=C(O)c1ccc(NS(=O)(=O)C(F)(F)F)cc1
69 | 135 to 137 | Nc1ccc(C2CC2)nn1
70 | 83 to 85 | CCC(CC(=O)O)c1ccc(OC)cc1 (stereo not given)
71 | 164 to 166 | CC(O)c1ccc(NC(=O)c2ccccc2)cc1 (stereo not given)
72 | 260 to 262 | O=C(O)c1cccc(S(=O)(=O)Nc2ccc(I)cc2)c1
73 | 159 to 161 | CNc1ncc(C(=O)O)s1
74 | 65 to 67 | COC(=O)CCNc1ncccc1[N+](=O)[O-]
75 | 166 to 168 | O=C(O)CNC(=O)C1CCOCC1
76 | 162 to 164 | O=C(O)C(Cc1ccccc1)NC(=O)C12CC3CC(CC(C3)C1)C2 (stereo not given)
77 | 163 to 165 | Cc1cc(C(=O)O)nc(-c2ccc(Cl)cc2)n1
78 | 232 to 234 | O=C(O)c1nn(-c2ccccc2Cl)c2c1CCCC2
79 | 108 to 110 | Cc1ccccc1CNC(=O)C(C)Cl (stereo not given)
80 | 143 to 145 | CN1CCC(=O)Nc2cc(F)ccc21
81 | 178 to 180 | Cc1ccc(-n2nc(C)c(C(=O)O)n2)c(C)c1
82 | 226 to 228 | O=C(O)c1oc2ccccc2c1Cn1cccn1
83 | 145 to 155 | O=C(O)c1cccc(CN2CCCC2=O)c1
84 | 70 to 72 | NC1CCN(c2ccccc2Cl)C1=O (stereo not given)
85 | 139 to 141 | O=C(O)C1CCCN(C(=O)Nc2ccccc2F)C1 (stereo not given)
86 | 264 to 266 | CC(=O)c1ccc2[nH]c(=O)[nH]c2c1
87 | 174 to 176 | NS(=O)(=O)c1ccc([N+](=O)[O-])nc1
88 | 164 to 166 | Cc1cc(C(=O)O)c(C)n1-c1ccccc1Br
89 | 143 to 145 | NCc1cccc(NC(N)=O)c1
90 | 205 to 207 | Cc1cccn2c(=O)c(C(=O)O)cnc12
91 | 218 to 221 | O=S(=O)(c1ccc(S)nc1)N1CCCCC1
92 | 113 to 115 | CCC(C)Nc1ccc(C(N)=O)cc1 (stereo not given)

Row | melting point [°C] | Structure (SMILES)
93 | 201 to 203 | CC(C)(C)c1ccc(C2(C(=O)O)CC2)cc1
94 | 309 to 311 | O=C(O)c1ccc(C(=O)Nc2ccccc2)cc1
95 | 206 to 208 | O=C(O)c1cc(O)cs1
96 | 134 to 136 | COCCOc1ccc(C(=O)O)cc1[N+](=O)[O-]
97 | 179 to 181 | O=C(O)Cn1cnc(-c2ccccc2)n1
98 | 219 to 221 | O=C(O)c1ccc(S)c(Cl)c1
99 | 109 to 111 | CC(=O)c1ccc(CC(=O)O)cc1
100 | 145 to 147 | O=C(O)Cc1ccc(C(F)(F)F)cc1[N+](=O)[O-]
101 | 101 to 103 | COC(=O)c1cc(O)ccc1[N+](=O)[O-]
102 | 69 to 71 | Cc1ccc(N(C)C(C)C)c(C(=O)O)c1
103 | 188 to 190 | Cc1ccc(-c2nnn(CC(=O)O)n2)cc1
104 | 70 to 72 | O=C(CBr)c1ccc(S(=O)(=O)N2CCCCCC2)cc1
105 | 94 to 96 | O=C(O)c1ncoc1C(F)(F)F
106 | 177 to 179 | O=C(O)C1CC(=O)N(c2ccccc2Br)C1 (stereo not given)
107 | 247 to 249 | O=C(O)c1ccc(N2CCCS2(=O)=O)cc1
108 | 300 to 302 | CC(C)(C)c1cc(C(=O)O)cc(C(=O)O)c1
109 | 166 to 168 | COC(=O)c1c(C(=O)OC)c(-c2cccc(N)c2)n2c1CCC2
110 | 69 to 71 | NNC(=O)CCOc1ccccc1
111 | 133 to 135 | O=C(CCl)NC1CCN(C(=O)C2CCCCC2)CC1
112 | 131 to 133 | OCc1ccc(F)c2cccnc12
113 | 179 to 181 | O=C(O)CNC(=O)NC1CC1
114 | 143 to 145 | COc1cc(C(=O)O)ccc1OCc1ccccc1Cl
115 | 113 to 115 | CC(Oc1ccc(Br)cc1F)C(=O)O (stereo not given)
116 | 51 to 53 | Cc1cs/c(=N\c2ccccc2)n1C1CCCC1
117 | 112 to 114 | O=C(O)CCn1cc(Br)cn1

Row | melting point [°C] | Structure (SMILES)
118 | 93 to 95 | COc1ccc(C(C)=O)cc1CS(=O)CC(=O)O (stereo not given)
119 | 167 to 169 | NC1CCc2c(O)cccc21 (stereo not given)
120 | 143 to 145 | O=C(O)CCC(=O)NCC(=O)c1ccccc1
121 | 127 to 129 | Cc1ccc(C(=O)CCC(=O)O)cc1C
122 | 142 to 144 | O=C(O)CCNS(=O)(=O)c1ccccc1C(F)(F)F
123 | 219 to 221 | COCCn1c(C)c(C)c2cc(C(=O)O)ccc21
124 | 144 to 146 | O=C(O)c1ccc(F)cc1I
125 | 124 to 126 | COc1ccccc1CNC(N)=O
126 | 95 to 97 | CCOC1CCN(C(=O)Nc2cccc(C(C)=O)c2)CC1
127 | 101 to 103 | Nc1cc(S(=O)(=O)NC2CC2)ccc1F
128 | 181 to 183 | NS(=O)(=O)c1ccc(-c2cccc(C(F)(F)F)c2)c(C(=O)O)c1
129 | 153 to 155 | NNC(=O)c1cccc(S(=O)(=O)N2CCCC2)c1
130 | 82 to 84 | O=C(O)CCOc1ccc(F)c(Cl)c1
131 | 139 to 141 | O=C(NCc1ccc(F)cc1)C1CCNCC1
132 | 178 to 180 | O=C(O)c1ccc(NC2CC2)nc1
133 | 169 to 171 | O=C(O)CSc1nnc(-c2ccccc2)o1
134 | 281 to 283 | O=C(O)C1CCN(c2ccc3cccc(O)c3n2)CC1
135 | 236 to 238 | CCS(=O)(=O)Nc1ccc(C(=O)O)cn1
136 | 147 to 149 | CC(C)(C)OC(=O)c1cccc(C(=O)O)c1
137 | 178 to 180 | NC(=O)Cc1ccccc1Cl
138 | 138 to 140 | O=C(O)C1Cc2ccccc2CN1S(=O)(=O)c1ccccc1 (stereo not given)
139 | 115 to 117 | O=C(Cc1nc(CCl)cs1)Nc1ccccc1
140 | 236 to 238 | O=C(O)c1cc(-c2cccs2)nc2onc(C3CC3)c12
